Bounds are passed on as bounds.

In the assay the target is 5'-AMP-activated protein kinase catalytic subunit alpha-2 (Homo sapiens, UniProt P54646). The assay is described as follows: Enzyme-Linked Immunosorbent Assay: Compounds were assayed for their ability to activate AMPK using an enzyme-linked immunosorbent assay. Reagents and procedures for measuring AMPK activation are well known and kits for AMPK activation assays are commercially available.
Chain of 5'-AMP-activated protein kinase catalytic subunit alpha-2 (P54646 whole entry): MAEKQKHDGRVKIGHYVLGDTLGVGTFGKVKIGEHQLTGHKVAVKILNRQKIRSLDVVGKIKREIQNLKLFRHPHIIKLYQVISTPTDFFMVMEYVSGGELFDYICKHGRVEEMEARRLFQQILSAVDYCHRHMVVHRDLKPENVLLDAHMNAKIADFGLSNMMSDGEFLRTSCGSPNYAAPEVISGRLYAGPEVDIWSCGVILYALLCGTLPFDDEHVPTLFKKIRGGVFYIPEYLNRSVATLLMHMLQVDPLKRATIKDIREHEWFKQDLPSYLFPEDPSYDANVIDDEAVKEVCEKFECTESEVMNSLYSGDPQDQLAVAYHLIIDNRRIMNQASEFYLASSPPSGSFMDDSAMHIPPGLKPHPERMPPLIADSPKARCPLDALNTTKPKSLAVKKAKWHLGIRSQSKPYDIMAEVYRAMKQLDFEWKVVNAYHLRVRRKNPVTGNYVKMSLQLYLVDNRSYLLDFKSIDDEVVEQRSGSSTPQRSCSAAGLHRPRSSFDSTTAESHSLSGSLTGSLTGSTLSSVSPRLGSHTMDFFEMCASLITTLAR

The term EC50 denotes the concentration giving half of the maximal effect. The low end stands for an effect from little substance, the high end for a need for much substance. In the case of `O=C(Nc1ccc(-c2ccc([N+](=O)[O-])cc2)cc1)c1ccc(C(=O)N2CCN(Cc3ccc(F)cc3)CC2)cn1`, the EC50 was > 10 µM.

In the case of `O=C(Nc1ccccc1-c1ccccc1)c1ccc(C(=O)N2CCN(Cc3ccc(F)cc3)CC2)cn1`, the half-maximal effective concentration (EC50) was > 10 µM.
